Measured values from US9796720B2, “Imidazole-derived modulators of the glucocorticoid receptor” (BRISTOL-MYERS SQUIBB COMPANY, priority 2013, dated 2017).
Where two headings read alike, the source gives them in different places.

Legend:
AP-1 = assay: Cellular transrepressional assay (AP-1 luciferase reporter in A549 cells, PMA-activated); assay type: cell-based; settings: for EC50: read-out: AP-1 (EC50, nM) (measured in cellular transrepression assay); for Emax: read-out: AP-1 Max % inhibition (measured in cellular transrepression assay)
Method: Cellular Transrepressional Assay
To measure the ability of test molecules to inhibit AP-1 induced transcriptional activity we utilized an A549 cell which was stably transfected with a plasmid containing 7×AP-1 DNA binding sites (pAP-1-Luc plasmid, Stratagene Co. La Jolla, Calif.) followed by the gene for luciferase. Cells were activated with 10 ng/ml of phorbol myristic acid (PMA) plus or minus test molecules for 7 hours. After 7 hours a luciferase reagent was added to measure luciferase enzymatic activity in the cell. After a 10 minute incubation of luciferase reagent with cells, luminescence was measured in a TOPCOUNT® luminescence counter. Repression of AP-1 activity was calculated as the percentage decrease in the signal induced by PMA alone. Test molecules were analyzed in the concentration range from 0.1 nM to 40 μM. EC50s were determined by using standard curve fitting methods such as Excel fit (Microsoft Co.). An EC50 is the test molecule concentration at which there is a 50% repression of the maximal inhibition of transcription, i.e., a 50% reduction of AP-1 activity.

[1] = target: human full-length glucocorticoid receptor (Homo sapiens (Human), UniProt P04150); assay: Glucocorticoid Receptor Binding Assay (II), fluorescence polarization competitor assay; settings: recombinant human full-length GR cell lysate, Fluormone GS1; read-out: GR (Ki, nM) (measured in GR binding Assay II)
Chain of human full-length glucocorticoid receptor (P04150 whole entry): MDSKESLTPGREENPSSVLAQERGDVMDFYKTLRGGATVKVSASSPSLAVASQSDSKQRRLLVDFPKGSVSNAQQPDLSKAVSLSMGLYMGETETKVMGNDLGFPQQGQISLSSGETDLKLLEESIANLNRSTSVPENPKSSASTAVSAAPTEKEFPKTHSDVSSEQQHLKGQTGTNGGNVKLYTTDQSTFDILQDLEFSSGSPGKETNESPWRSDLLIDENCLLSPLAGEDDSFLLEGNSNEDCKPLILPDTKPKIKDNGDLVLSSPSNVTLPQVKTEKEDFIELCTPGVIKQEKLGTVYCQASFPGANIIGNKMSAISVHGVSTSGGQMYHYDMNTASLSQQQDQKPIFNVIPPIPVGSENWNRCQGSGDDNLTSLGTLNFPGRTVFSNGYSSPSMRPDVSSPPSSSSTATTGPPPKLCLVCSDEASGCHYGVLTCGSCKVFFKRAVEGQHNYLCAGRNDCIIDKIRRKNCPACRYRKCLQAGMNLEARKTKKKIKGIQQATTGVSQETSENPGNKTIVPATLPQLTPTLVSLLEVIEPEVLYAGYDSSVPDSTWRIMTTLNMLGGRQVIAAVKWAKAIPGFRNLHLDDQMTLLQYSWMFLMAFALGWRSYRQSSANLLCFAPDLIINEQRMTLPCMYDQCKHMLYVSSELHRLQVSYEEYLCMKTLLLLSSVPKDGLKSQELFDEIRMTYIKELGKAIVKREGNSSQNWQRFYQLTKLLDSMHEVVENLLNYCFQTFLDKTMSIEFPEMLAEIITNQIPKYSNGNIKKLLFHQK
Method: Glucocorticoid Receptor Binding Assay (II)
In order to measure the binding of compounds on the glucocorticoid receptor a commercially available kit was used (Glucocorticoid receptor competitor assay kit, PanVera Co., Madison, Wis., P2816). Briefly, a cell lysate containing recombinantly expressed human full-length glucocorticoid receptor was mixed with a fluorescently labeled glucocorticoid (1 nM Fluormone GS1) in the presence or absence of test compound. After one hour at room temperature, the fluorescence polarization (FP) of the samples were measured.

[2] = A549 cells, 7xAP-1 luciferase, PMA 10 ng/ml, 7 hours

| SMILES | EC50 (AP-1; [2]) | Emax (AP-1; [2]) | Ki [1] | EC50 (AP-1; 7 h) | Emax (AP-1; 7 h) |
| --- | --- | --- | --- | --- | --- |
| CC(C)(c1nc2nccnc2[nH]1)[C@@H]1c2ccc(-c3ccc(C(=O)N4CCOCC4)cc3)nc2Oc2c(F)cccc21 [Example 1, (S)-(4-(5-(2-(1H-Imidazo[4,5-b]pyrazin-2-yl)propan-2-yl)-9-fluoro-5H-chromeno[2,3-b]pyridin-2-yl)phenyl)(morpholino)methanone] | 8.33 nM | 65.2% | 57 nM |  |  |
| COC(=O)c1ccc(-c2ccc3c(n2)Oc2c(F)cccc2[C@@H]3C(C)(C)c2nc3nccnc3[nH]2)cn1 [Example 26, (S)-Methyl 5-(5-(2-(1H-imidazo[4,5-b]pyrazin-2-yl)propan-2-yl)-9-fluoro-5H-chromeno[2,3-b]pyridin-2-yl)picolinate] | 5000 nM | 14.3% | 144 nM |  |  |
| CN(C)c1ccc(-c2ccc3c(n2)Oc2c(F)cccc2[C@@H]3C(C)(C)c2nc3nccnc3[nH]2)cn1 [Example 29, (S)-5-(5-(2-(1H-Imidazo[4,5-b]pyrazin-2-yl)propan-2-yl)-9-fluoro-5H-chromeno[2,3-b]pyridin-2-yl)-N,N-dimethylpyridin-2-amine] | 129 nM | 44.9% | 5.43 nM |  |  |
| CN(C)C(=O)c1ccc(-c2ccc3c(n2)Oc2c(F)cccc2[C@@H]3C(C)(C)c2nc3nccnc3[nH]2)cc1 [Example 4, (S)-4-(5-(2-(1H-Imidazo[4,5-b]pyrazin-2-yl)propan-2-yl)-9-fluoro-5H-chromeno[2,3-b]pyridin-2-yl)-N,N-dimethylbenzamide] | 4.94 nM | 73.1% | 2.63 nM |  |  |
| CC(C)(O)c1ccc(-c2ccc3c(n2)Oc2c(F)cccc2[C@@H]3C(C)(C)c2nc3nccnc3[nH]2)cn1 [Example 27, (S)-2-(5-(5-(2-(1H-Imidazo[4,5-b]pyrazin-2-yl)propan-2-yl)-9-fluoro-5H-chromeno[2,3-b]pyridin-2-yl)pyridin-2-yl)propan-2-ol] | 28.4 nM | 53.6% | 9.3 nM |  |  |
| CC(C)(c1nc2nccnc2[nH]1)[C@@H]1c2ccc(-c3ccc(NS(C)(=O)=O)cc3)nc2Oc2c(F)cccc21 [Example 23, (S)-N-(4-(5-(2-(1H-Imidazo[4,5-b]pyrazin-2-yl)propan-2-yl)-9-fluoro-5H-chromeno[2,3-b]pyridin-2-yl)phenyl)methanesulfonamide] |  |  | 1.76 nM | 22.8 nM | 58.2% |
| CC(C)(c1nc2ccccc2[nH]1)[C@@H]1c2ccc(-c3ccc(C(=O)N4CCOCC4)cc3)nc2Oc2c(F)cccc21 [Example 14, (S)-(4-(5-(2-(1H-Benzo[d]imidazol-2-yl)propan-2-yl)-9-fluoro-5H-chromeno[2,3-b]pyridin-2-yl)phenyl)(morpholino)methanone] | 284 nM | 31.6% | 16.1 nM |  |  |
| CC(C)(c1nc2nccnc2[nH]1)[C@@H]1c2ccc(-c3ccc(N4CCCC4=O)cc3)nc2Oc2c(F)cccc21 [Example 24, (S)-1-(4-(5-(2-(1H-Imidazo[4,5-b]pyrazin-2-yl)propan-2-yl)-9-fluoro-5H-chromeno[2,3-b]pyridin-2-yl)phenyl)pyrrolidin-2-one] | 37.3 nM | 69.4% | 1.9 nM |  |  |
| CC(C)Oc1ccc(-c2ccc3c(n2)Oc2c(F)cccc2[C@@H]3C(C)(C)c2nc3nccnc3[nH]2)cc1F [Example 10, (S)-5-(2-(1H-Imidazo[4,5-b]pyrazin-2-yl)propan-2-yl)-9-fluoro-2-(3-fluoro-4-isopropoxyphenyl)-5H-chromeno[2,3-b]pyridine] | 20.1 nM | 70.2% | 0.67 nM |  |  |
| CC(C)(O)c1ccc(-c2ccc3c(n2)Oc2c(F)cccc2[C@@H]3C(C)(C)c2nc3nccnc3[nH]2)cc1 [Example 3, (S)-2-(4-(5-(2-(1H-Imidazo[4,5-b]pyrazin-2-yl)propan-2-yl)-9-fluoro-5H-chromeno[2,3-b]pyridin-2-yl)phenyl)propan-2-ol] | 3.85 nM | 65% | 2.35 nM |  |  |
| CC(C)(c1nc2cncnc2[nH]1)[C@@H]1c2ccc(-c3ccc(S(C)(=O)=O)cc3)nc2Oc2c(F)cccc21 [Example 17, (S)-5-(2-(9H-Purin-8-yl)propan-2-yl)-9-fluoro-2-(4-(methylsulfonyl)phenyl)-5H-chromeno[2,3-b]pyridine] | 2500 nM | 27.3% | 65.8 nM |  |  |
| CC(C)(c1nc2nccnc2[nH]1)[C@@H]1c2ccc(-c3ccc(S(C)(=O)=O)cc3)nc2Oc2c(F)cccc21 [Example 5, (S)-5-(2-(1H-Imidazo[4,5-b]pyrazin-2-yl)propan-2-yl)-9-fluoro-2-(4-(methylsulfonyl)phenyl)-5H-chromeno[2,3-b]pyridine] |  |  | 2.89 nM | 29.5 nM | 55.8% |
| CCS(=O)(=O)c1ccc(-c2ccc3c(n2)Oc2c(F)cccc2[C@@H]3C(C)(C)c2nc3nccnc3[nH]2)cc1 [Example 6, (S)-5-(2-(1H-Imidazo[4,5-b]pyrazin-2-yl)propan-2-yl)-2-(4-(ethylsulfonyl)phenyl)-9-fluoro-5H-chromeno[2,3-b]pyridine] | 15.5 nM | 58.2% | 2.34 nM |  |  |
| CC(C)(c1nc2nccnc2[nH]1)[C@@H]1c2ccc(-c3ccc(N4CCOCC4)cc3)nc2Oc2c(F)cccc21 [Example 18, (S)-5-(2-(1H-Imidazo[4,5-b]pyrazin-2-yl)propan-2-yl)-9-fluoro-2-(4-morpholinophenyl)-5H-chromeno[2,3-b]pyridine] | 61.1 nM | 50.6% | 16 nM |  |  |
| CC(=O)c1ccc(-c2ccc3c(n2)Oc2c(F)cccc2[C@@H]3C(C)(C)c2nc3nccnc3[nH]2)cc1 [Example 2, (S)-1-(4-(5-(2-(1H-Imidazo[4,5-b]pyrazin-2-yl)propan-2-yl)-9-fluoro-5H-chromeno[2,3-b]pyridin-2-yl)phenyl)ethanone] |  |  | 3.28 nM | 4.39 nM | 59.7% |
| CC(C)Oc1ccc(-c2ccc3c(n2)Oc2c(F)cccc2[C@@H]3C(C)(C)c2nc3nccnc3[nH]2)cn1 [Example 25, (S)-5-(2-(1H-Imidazo[4,5-b]pyrazin-2-yl)propan-2-yl)-9-fluoro-2-(6-isopropoxypyridin-3-yl)-5H-chromeno[2,3-b]pyridine] | 31.7 nM | 57.8% | 2.78 nM |  |  |
| Cn1nnnc1-c1ccc(-c2ccc3c(n2)Oc2c(F)cccc2[C@@H]3C(C)(C)c2nc3nccnc3[nH]2)cc1 [Example 31, (S)-5-(2-(1H-Imidazo[4,5-b]pyrazin-2-yl)propan-2-yl)-9-fluoro-2-(4-(1-methyl-1H-tetrazol-5-yl)phenyl)-5H-chromeno[2,3-b]pyridine] | 15 nM | 48.6% | 1.94 nM |  |  |
| CC(C)S(=O)(=O)c1ccc(-c2ccc3c(n2)Oc2c(F)cccc2[C@@H]3C(C)(C)c2nc3nccnc3[nH]2)cc1 [Example 7, (S)-5-(2-(1H-Imidazo[4,5-b]pyrazin-2-yl)propan-2-yl)-9-fluoro-2-(4-(isopropylsulfonyl)phenyl)-5H-chromeno[2,3-b]pyridine] |  |  | 1.4 nM | 12.2 nM | 54.2% |
| CC(C)(c1nc2nccnc2[nH]1)[C@@H]1c2ccc(-c3ccc(F)nc3)nc2Oc2c(F)cccc21 [Example 28, (S)-5-(2-(1H-Imidazo[4,5-b]pyrazin-2-yl)propan-2-yl)-9-fluoro-2-(6-fluoropyridin-3-yl)-5H-chromeno[2,3-b]pyridine] | 5000 nM | 16.4% | 28.6 nM |  |  |
| CC(C)Oc1ccc(-c2ccc3c(n2)Oc2c(F)cccc2[C@@H]3C(C)(C)c2nc3nccnc3[nH]2)cc1Cl [Example 9, (S)-5-(2-(1H-Imidazo[4,5-b]pyrazin-2-yl)propan-2-yl)-2-(3-chloro-4-isopropoxyphenyl)-9-fluoro-5H-chromeno[2,3-b]pyridine] | 291 nM | 43.7% | 2.1 nM |  |  |
| CC(C)(c1nc2nccnc2[nH]1)[C@@H]1c2ccc(-c3ccc(C(=O)N4CCOCC4)nc3)nc2Oc2c(F)cccc21 [Example 30, (S)-(5-(5-(2-(1H-Imidazo[4,5-b]pyrazin-2-yl)propan-2-yl)-9-fluoro-5H-chromeno[2,3-b]pyridin-2-yl)pyridin-2-yl)(morpholino)methanone] | 179 nM | 57% | 30.3 nM |  |  |
| CC(C)(c1nc2nccnc2[nH]1)[C@@H]1c2ccc(-c3ccccc3)nc2Oc2c(F)cccc21 [Example 20, (S)-5-(2-(1H-Imidazo[4,5-b]pyrazin-2-yl)propan-2-yl)-9-fluoro-2-phenyl-5H-chromeno[2,3-b]pyridine] | 14.2 nM | 40% | 1.4 nM |  |  |
| CC(C)(c1nc2nccnc2[nH]1)[C@@H]1c2ccc(-c3ccc(N)cc3)nc2Oc2c(F)cccc21 [Example 22, (S)-4-(5-(2-(1H-Imidazo[4,5-b]pyrazin-2-yl)propan-2-yl)-9-fluoro-5H-chromeno[2,3-b]pyridin-2-yl)aniline] | 19.9 nM | 51% | 2.91 nM |  |  |
